Counter-ions that a name gives are not always drawn.

The values that follow come from patent publication US8513238B2 (Hoffmann-La Roche Inc., priority 2010, dated 2013).

T1 sequence (P37288 whole entry): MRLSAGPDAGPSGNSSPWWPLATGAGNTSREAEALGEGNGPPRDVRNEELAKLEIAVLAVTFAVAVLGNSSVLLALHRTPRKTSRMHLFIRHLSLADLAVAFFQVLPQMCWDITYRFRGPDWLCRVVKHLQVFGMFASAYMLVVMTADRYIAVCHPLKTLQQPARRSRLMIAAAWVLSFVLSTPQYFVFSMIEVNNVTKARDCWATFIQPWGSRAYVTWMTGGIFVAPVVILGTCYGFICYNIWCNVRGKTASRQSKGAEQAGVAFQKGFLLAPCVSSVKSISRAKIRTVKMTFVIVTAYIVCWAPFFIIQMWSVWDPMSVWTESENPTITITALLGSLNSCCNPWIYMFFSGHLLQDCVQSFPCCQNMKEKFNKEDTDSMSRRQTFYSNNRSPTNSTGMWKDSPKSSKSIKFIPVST

The assay concerns the target T1, human V1a receptor (Homo sapiens, UniProt P37288).
T1 construct: expressed in transfected cells; host or cells: HEK293 cells, transiently transfected; membranes prepared
Briefly: human V1a receptor binding (3H-Vasopressin SPA, HEK293 membranes). Conditions: membranes of HEK293 cells transiently transfected with human V1a receptor, Ki by Cheng-Prussoff, read-out: pKi (hV1a) (converted). As to the method: The human V1a receptor was cloned by RT-PCR from total human liver RNA. The coding sequence was subcloned in an expression vector after sequencing to confirm the identity of the amplified sequence. […] Cell membranes were prepared from HEK293 cells transiently transfected with the expression vector and grown in 20 liter fermenters with the following protocol.
50 g of cells are resuspended in 30 ml freshly prepared ice cold Lysis buffer (50 mM HEPES, 1 mM EDTA, 10 mM magnesium dichloride adjusted to pH=7.4+complete cocktail of protease inhibitor (Roche Diagnostics)). Homogenized with Polytron for 1 min and sonicated on ice for 2×2 minutes at 80% intensity (Vibracell sonicator). The preparation is centrifuged 20 min at 500 g at 4° C., the pellet is discarded and the supernatant centrifuged 1 hour at 43,000 g at 4° C. (19,000 rpm). The pellet is resuspended in 12.5 ml Lysis buffer+12.5 ml sucrose 20% and homogenized using a Polytron for 1-2 min. The protein concentration is determined by the Bradford method and aliquots are stored at −80° C. until use. For binding studies 60 mg Yttrium silicate SPA beads (Amersham®) are mixed with an aliquot of membrane in binding buffer (50 mM Tris, 120 mM sodium chloride, 5 mM potassium chloride, 2 mM calcium dichloride, 10 mM magnesium dichloride) for 15 minutes with mixing. 50 μl of bead/membrane mixture is then added to each well of a 96 well plate, followed by 50 μl of 4 nM 3H-Vasopressin (American Radiolabeled Chemicals). For total binding measurement 100 μl of binding buffer are added to the respective wells, for non-specific binding 100 μl of 8.4 mM cold vasopressin and for compound testing 100 μl of a serial dilution of each compound in 2% dimethyl sulfoxide. The plate is incubated 1 h at room temperature, centrifuged 1 min at 1000 g and counted on a Packard Top-Count. Non-specific binding counts are subtracted from each well and data is normalized to the maximum specific binding set at 100%. To calculate an IC50 the curve is fitted using a non-linear regression model (XLfit) and the Ki is calculated using the Cheng-Prussoff equation.
As to `CCc1cc([C@H]2CC[C@H](c3nnc4n3-c3ccc(Cl)cc3CN(C(=O)OC(C)(C)C)C4)CC2)no1` [Example 49, trans-8-Chloro-1-[4-(5-ethyl-isoxazol-3-yl)-cyclohexyl]-4H,6H-2,3,5,10b-tetraaza-benzo[e]azulene-5-carboxylic acid tert-butyl ester], the Ki is 4.07 nM.
Under `CCc1cc([C@H]2CC[C@@H](c3nnc4n3-c3ccc(Cl)cc3CNC4)CC2)no1` [Example 50, cis-8-Chloro-1-[4-(5-ethyl-isoxazol-3-yl)-cyclohexyl]-5,6-dihydro-4H-2,3,5,10b-tetraaza-benzo[e]azulene hydrochloride] stands 182 nM; under `CCc1cc([C@H]2CC[C@@H](c3nnc4n3-c3ccc(Cl)cc3CN(C)C4)CC2)no1` [Example 51, cis-8-Chloro-1-[4-(5-ethyl-isoxazol-3-yl)-cyclohexyl]-5-methyl-5,6-dihydro-4H-2,3,5,10b-tetraaza-benzo[e]azulene], 15.5 nM.
The result for `CCc1cc([C@H]2CC[C@H](c3nnc4n3-c3ccc(Cl)cc3CNC4)CC2)no1` [Example 52, trans-8-Chloro-1-[4-(5-ethyl-isoxazol-3-yl)-cyclohexyl]-5,6-dihydro-4H-2,3,5,10b-tetraaza-benzo[e]azulene hydrochloride] reads 6.31 nM.
Under `CCc1cc([C@H]2CC[C@H](c3nnc4n3-c3ccc(Cl)cc3CN(C)C4)CC2)no1` [Example 53, trans-8-Chloro-1-[4-(5-ethyl-isoxazol-3-yl)-cyclohexyl]-5-methyl-5,6-dihydro-4H-2,3,5,10b-tetraaza-benzo[e]azulene] stands 1.2 nM; under `CC(C)(C)OC(=O)N1Cc2cc(Cl)ccc2-n2c(nnc2[C@H]2CC[C@H](c3noc4c3CCCC4)CC2)C1` [Example 54, trans-8-Chloro-1-[4-(4,5,6,7-tetrahydro-benzo[d]isoxazol-3-yl)-cyclohexyl]-4H,6H-2,3,5,10b-tetraaza-benzo[e]azulene-5-carboxylic acid tert-butyl ester], 9.55 nM.
As to `Clc1ccc2c(c1)CNCc1nnc([C@H]3CC[C@H](c4noc5c4CCCC5)CC3)n1-2` [Example 55, trans-8-Chloro-1-[4-(4,5,6,7-tetrahydro-benzo[d]isoxazol-3-yl)-cyclohexyl]-5,6-dihydro-4H-2,3,5,10b-tetraaza-benzo[e]azulene], the Ki was 5.89 nM.
In the case of `CN1Cc2cc(Cl)ccc2-n2c(nnc2[C@H]2CC[C@H](c3noc4c3CCCC4)CC2)C1` [Example 56, trans-8-Chloro-5-methyl-1-[4-(4,5,6,7-tetrahydro-benzo[d]isoxazol-3-yl)-cyclohexyl]-5,6-dihydro-4H-2,3,5,10b-tetraaza-benzo[e]azulene], the Ki was 1.58 nM.
As to `CC(C)(C)OC(=O)N1Cc2cc(Cl)ccc2-n2c(nnc2[C@H]2CC[C@@H](c3noc4c3CCCC4)CC2)C1` [Example 57, cis-8-Chloro-1-[4-(4,5,6,7-tetrahydro-benzo[d]isoxazol-3-yl)-cyclohexyl]-4H,6H-2,3,5,10b-tetraaza-benzo[e]azulene-5-carboxylic acid tert-butyl ester], the Ki was 46.8 nM.
On to `Clc1ccc2c(c1)CNCc1nnc([C@H]3CC[C@@H](c4noc5c4CCCC5)CC3)n1-2` [Example 58, cis-8-Chloro-1-[4-(4,5,6,7-tetrahydro-benzo[d]isoxazol-3-yl)-cyclohexyl]-5,6-dihydro-4H-2,3,5,10b-tetraaza-benzo[e]azulene], for which the Ki was 191 nM.
The result for `CN1Cc2cc(Cl)ccc2-n2c(nnc2[C@H]2CC[C@@H](c3noc4c3CCCC4)CC2)C1` [Example 59, cis-8-Chloro-5-methyl-1-[4-(4,5,6,7-tetrahydro-benzo[d]isoxazol-3-yl)-cyclohexyl]-5,6-dihydro-4H-2,3,5,10b-tetraaza-benzo[e]azulene] reads 8.13 nM.
The result for `CC(C)(C)OC(=O)N1Cc2cc(Cl)ccc2-n2c(nnc2[C@H]2CC[C@H](c3onc4c3CCCC4)CC2)C1` [Example 60, trans-8-Chloro-1-[4-(4,5,6,7-tetrahydro-benzo[c]isoxazol-3-yl)-cyclohexyl]-4H,6H-2,3,5,10b-tetraaza-benzo[e]azulene-5-carboxylic acid tert-butyl ester] reads 15.5 nM; that for `Clc1ccc2c(c1)CNCc1nnc([C@H]3CC[C@H](c4onc5c4CCCC5)CC3)n1-2` [Example 61, trans-8-Chloro-1-[4-(4,5,6,7-tetrahydro-benzo[c]isoxazol-3-yl)-cyclohexyl]-5,6-dihydro-4H-2,3,5,10b-tetraaza-benzo[e]azulene], 30.2 nM.
Under `CN1Cc2cc(Cl)ccc2-n2c(nnc2[C@H]2CC[C@H](c3onc4c3CCCC4)CC2)C1` [Example 62, trans-8-Chloro-5-methyl-1-[4-(4,5,6,7-tetrahydro-benzo[c]isoxazol-3-yl)-cyclohexyl]-5,6-dihydro-4H-2,3,5,10b-tetraaza-benzo[e]azulene] stands 6.31 nM; under `Cc1nnc([C@H]2CC[C@H](c3nnc4n3-c3ccc(Cl)cc3CN(C(=O)OC(C)(C)C)C4)CC2)o1` [Example 63, trans-8-Chloro-1-[4-(5-methyl-[1,3,4]oxadiazol-2-yl)-cyclohexyl]-4H,6H-2,3,5,10b-tetraaza-benzo[e]azulene-5-carboxylic acid tert-butyl ester], 1.58 nM.
With `Cc1nnc([C@H]2CC[C@H](c3nnc4n3-c3ccc(Cl)cc3CNC4)CC2)o1` [Example 64, trans-8-Chloro-1-[4-(5-methyl-[1,3,4]oxadiazol-2-yl)-cyclohexyl]-5,6-dihydro-4H-2,3,5,10b-tetraaza-benzo[e]azulene], the Ki is 204 nM.
Under `Cc1nnc([C@H]2CC[C@H](c3nnc4n3-c3ccc(Cl)cc3CN(C)C4)CC2)o1` [Example 65, trans-8-Chloro-5-methyl-1-[4-(5-methyl-[1,3,4]oxadiazol-2-yl)-cyclohexyl]-5,6-dihydro-4H-2,3,5,10b-tetraaza-benzo[e]azulene] stands 15.8 nM; under `Cc1noc([C@H]2CC[C@H](c3nnc4n3-c3ccc(Cl)cc3CN(C(=O)OC(C)(C)C)C4)CC2)n1` [Example 66, trans-8-Chloro-1-[4-(3-methyl-[1,2,4]oxadiazol-5-yl)-cyclohexyl]-4H,6H-2,3,5,10b-tetraaza-benzo[e]azulene-5-carboxylic acid tert-butyl ester], 2.88 nM; under `Cc1noc([C@H]2CC[C@H](c3nnc4n3-c3ccc(Cl)cc3CNC4)CC2)n1` [Example 67, trans-8-Chloro-1-[4-(3-methyl-[1,2,4]oxadiazol-5-yl)-cyclohexyl]-5,6-dihydro-4H-2,3,5,10b-tetraaza-benzo[e]azulene hydrochloride], 67.6 nM.
The result for `Cc1noc([C@H]2CC[C@H](c3nnc4n3-c3ccc(Cl)cc3CN(C)C4)CC2)n1` [Example 68, trans-8-Chloro-5-methyl-1-[4-(3-methyl-[1,2,4]oxadiazol-5-yl)-cyclohexyl]-5,6-dihydro-4H-2,3,5,10b-tetraaza-benzo[e]azulene] reads 6.61 nM; that for `Cc1nsc([C@H]2CC[C@H](c3nnc4n3-c3ccc(Cl)cc3CN(C(=O)OC(C)(C)C)C4)CC2)n1` [Example 69, trans-8-Chloro-1-[4-(3-methyl-[1,2,4]thiadiazol-5-yl)-cyclohexyl]-4H,6H-2,3,5,10b-tetraaza-benzo[e]azulene-5-carboxylic acid tert-butyl ester], 1.51 nM; that for `Cc1nsc([C@H]2CC[C@H](c3nnc4n3-c3ccc(Cl)cc3CNC4)CC2)n1` [Example 70, trans-8-Chloro-1-[4-(3-methyl-[1,2,4]thiadiazol-5-yl)-cyclohexyl]-5,6-dihydro-4H-2,3,5,10b-tetraaza-benzo[e]azulene], 129 nM.
Under `Cc1nsc([C@H]2CC[C@H](c3nnc4n3-c3ccc(Cl)cc3CN(C)C4)CC2)n1` [Example 71, trans-8-Chloro-5-methyl-1-[4-(3-methyl-[1,2,4]thiadiazol-5-yl)-cyclohexyl]-5,6-dihydro-4H-2,3,5,10b-tetraaza-benzo[e]azulene] stands 15.1 nM; under `Cc1nc([C@H]2CC[C@H](c3nnc4n3-c3ccc(Cl)cc3CN(C(=O)OC(C)(C)C)C4)CC2)no1` [Example 72, trans-8-Chloro-1-[4-(5-methyl-[1,2,4]oxadiazol-3-yl)-cyclohexyl]-4H,6H-2,3,5,10b-tetraaza-benzo[e]azulene-5-carboxylic acid tert-butyl ester], 0.708 nM.
Regarding `Cc1nc([C@H]2CC[C@H](c3nnc4n3-c3ccc(Cl)cc3CNC4)CC2)no1` [Example 73, trans-8-Chloro-1-[4-(5-methyl-[1,2,4]oxadiazol-3-yl)-cyclohexyl]-5,6-dihydro-4H-2,3,5,10b-tetraaza-benzo[e]azulene hydrochloride], the Ki is 15.8 nM.
